Among the data in patent US20210038607A1, “OXADIAZOLYLTHIOPHENE DERIVATIVES USEFUL AS HISTONE DEACETYLASE INHIBITORS” (Karus Therapeutics Limited, priority 2018, published 2021) are IC50 values, retold here.

Bounds are passed on as bounds.

One assay addresses T1, Human HDAC1 (Homo sapiens, UniProt Q13547).
T1 construct: full length with C-terminal His-tag and C-terminal FLAG-tag; His (C); FLAG (C); host or cells: baculovirus expression system
In words: HDAC1 biochemical assay, AMC-labeled peptide substrate. As to conditions: read-out: HDAC Isoform IC50 (nM) 1. The protocol:
(§1) Activity against all zinc-dependent HDACs 1 to 11 was assessed by using an acetylated AMC-labeled peptide substrate. The substrate RHKK(Ac)AMC was used for HDAC1, HDAC2, HDAC3, HDAC6 and HDAC10; the substrate used for HDAC8 was RHK(Ac)K(Ac)AMC. Activity against the class IIa HDACs (HDAC4, 5, 7, 9) and HDAC11 was determined using a class IIa-specific substrate, BOC-Lys(trifluoroacetyl)-AMC (“Trifluoroacetyl Lysine”; see Lahm et al, 2007, PNAS, 104, 17335-17340). All assays were based on the AMC-labeled substrate and developer combination.
(§2) The protocol involved a two-step reaction: first, the substrate with the acetylated lysine side chain is incubated with a sample containing HDAC activity, to produce the deacetylated products, which are then digested in the second step by the addition of developer to produce the fluorescent signal proportional to the amount of deacetylated substrates.
Human HDAC1 (GenBank Accession No. NM_004964), full length with C-terminal His-tag and C-terminal FLAG-tag, MW=56 kDa, expressed in baculovirus expression system.
(§3) Assay Buffer: 50 mM Tris-HCl, pH8.0, 137 mM NaCl, 2.7 mM KCl, 1 mM MgC2. Before use, 1 mg/mL BSA and DMSO are added.
HDAC1: 0.3 ng/ul HDAC1 and 50 μM HDAC substrate are in the reaction buffer with 1% DMSO final. Incubate for 1 hour at 30° C.
(§4) Stage 1: Deacetylation of substrate by incubation of HDAC enzymes with compounds
(§5) Stage 2: Development by addition of Developer to digest the deacetylated substrate, and generate the fluorescent colour; Detection: 360/460 Ex/Em

In the next assay the target is T2, Human HDAC4 (Homo sapiens, UniProt P56524).
T2 construct: amino acids 627-1085 with N-terminal GST tag; GST (N); host or cells: baculovirus expression system
T2 sequence (P56524 627-1084 limits assumed): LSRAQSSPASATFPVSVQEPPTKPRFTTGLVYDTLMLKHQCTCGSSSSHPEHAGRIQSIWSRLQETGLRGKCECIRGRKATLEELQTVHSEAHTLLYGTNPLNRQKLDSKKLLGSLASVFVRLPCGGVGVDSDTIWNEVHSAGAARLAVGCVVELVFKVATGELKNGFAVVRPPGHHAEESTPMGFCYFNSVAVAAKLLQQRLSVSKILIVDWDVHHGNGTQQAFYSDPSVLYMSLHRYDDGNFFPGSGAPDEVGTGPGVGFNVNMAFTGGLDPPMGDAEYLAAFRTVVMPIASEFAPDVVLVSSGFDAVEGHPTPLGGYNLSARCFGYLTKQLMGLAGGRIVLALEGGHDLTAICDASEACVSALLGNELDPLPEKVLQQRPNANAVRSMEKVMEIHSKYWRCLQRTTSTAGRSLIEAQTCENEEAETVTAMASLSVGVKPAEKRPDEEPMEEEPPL
Put plainly: HDAC4 biochemical assay, class IIa-specific substrate. The following applies: read-out: HDAC Isoform IC50 (nM) 4. As to the method: as §1, §2
Human HDAC4 (GenBank Accession No. NM_006037), amino acids 627-1085 with N-terminal GST tag, MW=75.2 kDa, expressed in baculovirus expression system.
as §3
(§6) For class IIa HDACs, assay buffer is the same.
HDAC4: 0.004 ng/ul HDAC4 and 50 μM Class IIa HDAC substrate are in the reaction buffer with 1% DMSO final. Incubate for 30 minutes at room temperature.
as §4, §5

For the next assay, the target named is T3, Human HDAC5 (Homo sapiens, UniProt Q9UQL6).
T3 construct: full length with C-terminal His tag, MW=51.1 kDa; His (C); host or cells: baculovirus expression system
T3 sequence (Q9UQL6 656-1122 limits assumed): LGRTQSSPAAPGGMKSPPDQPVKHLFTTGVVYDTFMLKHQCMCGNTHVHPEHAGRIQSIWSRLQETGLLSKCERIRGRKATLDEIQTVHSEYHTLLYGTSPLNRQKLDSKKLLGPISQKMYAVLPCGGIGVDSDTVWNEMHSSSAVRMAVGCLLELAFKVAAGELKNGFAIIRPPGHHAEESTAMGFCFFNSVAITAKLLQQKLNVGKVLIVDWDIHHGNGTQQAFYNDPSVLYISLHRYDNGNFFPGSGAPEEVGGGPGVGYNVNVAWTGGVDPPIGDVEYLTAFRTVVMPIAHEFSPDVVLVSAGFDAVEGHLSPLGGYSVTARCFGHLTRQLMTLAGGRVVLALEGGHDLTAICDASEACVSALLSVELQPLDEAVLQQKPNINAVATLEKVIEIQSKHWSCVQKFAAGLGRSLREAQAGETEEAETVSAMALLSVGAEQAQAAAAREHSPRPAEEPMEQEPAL
In words: HDAC5 biochemical assay, class IIa-specific substrate. As to conditions: read-out: HDAC Isoform IC50 (nM) 5. The protocol: as §1, §2
Human HDAC5 (GenBank Accession No. NM_005474), full length with C-terminal His tag, MW=51.1 kDa, expressed in baculovirus expression system.
as §3, §6
HDAC5: 0.05 ng/ul HDAC5 and 50 μM Class IIa HDAC substrate are in the reaction buffer with 1% DMSO final. Incubate for 30 minutes at room temperature.
as §4, §5

The next assay deals with T4, Recombinant human HDAC6 (Homo sapiens, UniProt Q9UBN7).
T4 construct: full length, MW=159 kDa; GST (N); host or cells: Sf9 insect cells (baculovirus)
T4 sequence (Q9UBN7 1-1215): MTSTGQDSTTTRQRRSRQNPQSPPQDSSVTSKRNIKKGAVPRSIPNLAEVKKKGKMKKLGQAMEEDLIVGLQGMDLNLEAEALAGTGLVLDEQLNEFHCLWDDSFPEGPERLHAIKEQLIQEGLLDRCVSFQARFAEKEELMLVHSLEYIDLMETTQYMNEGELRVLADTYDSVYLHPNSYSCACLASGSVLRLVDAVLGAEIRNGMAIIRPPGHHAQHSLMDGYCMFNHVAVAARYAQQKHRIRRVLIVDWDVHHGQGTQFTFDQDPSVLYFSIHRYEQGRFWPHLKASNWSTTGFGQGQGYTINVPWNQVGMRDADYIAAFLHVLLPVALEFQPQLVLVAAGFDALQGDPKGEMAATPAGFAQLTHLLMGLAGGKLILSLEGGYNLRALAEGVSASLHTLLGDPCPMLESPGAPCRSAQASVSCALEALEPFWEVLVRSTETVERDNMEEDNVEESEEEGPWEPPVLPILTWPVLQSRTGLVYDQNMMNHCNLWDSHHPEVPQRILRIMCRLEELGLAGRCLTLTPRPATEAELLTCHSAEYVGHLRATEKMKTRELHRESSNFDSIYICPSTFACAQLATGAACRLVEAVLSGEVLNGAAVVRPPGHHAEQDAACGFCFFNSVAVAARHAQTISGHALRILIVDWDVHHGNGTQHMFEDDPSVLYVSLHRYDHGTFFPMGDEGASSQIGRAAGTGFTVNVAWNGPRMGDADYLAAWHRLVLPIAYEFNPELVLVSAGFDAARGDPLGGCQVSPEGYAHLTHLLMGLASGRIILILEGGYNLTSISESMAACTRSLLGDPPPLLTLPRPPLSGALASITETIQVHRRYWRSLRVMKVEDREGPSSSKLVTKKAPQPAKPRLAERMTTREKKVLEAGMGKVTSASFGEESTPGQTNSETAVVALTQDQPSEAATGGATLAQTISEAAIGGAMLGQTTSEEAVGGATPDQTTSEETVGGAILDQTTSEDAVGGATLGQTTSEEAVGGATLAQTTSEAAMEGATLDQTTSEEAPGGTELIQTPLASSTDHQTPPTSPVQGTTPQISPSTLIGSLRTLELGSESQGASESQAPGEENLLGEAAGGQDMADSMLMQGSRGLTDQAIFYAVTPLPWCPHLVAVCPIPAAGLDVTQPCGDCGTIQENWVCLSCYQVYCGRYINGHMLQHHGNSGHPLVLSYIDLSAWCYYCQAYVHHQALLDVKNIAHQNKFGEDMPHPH
In words: HDAC6 biochemical assay, AMC-labeled peptide substrate. As to conditions: HDAC6; read-out: HDAC Isoform IC50 (nM) 6. The protocol:
as §1, §2
Recombinant human HDAC6 (GenBank Accession No. BC069243), full length, MW=159 kDa, was expressed by baculovirus in Sf9 insect cells using an N-terminal GST tag.
as §3
HDAC6: 0.3 ng/ul HDAC6 and 50 μM HDAC substrate are in the reaction buffer with 1% DMSO final. Incubate for 1 hours at 30° C.
as §4, §5

For the next assay, the target named is T5, Human HDAC7 (Homo sapiens, UniProt Q8WUI4).
T5 construct: (a.a. 518-end) with N-terminal GST tag; GST (N); host or cells: baculovirus expression system
T5 sequence (Q8WUI4 518-952 limits assumed): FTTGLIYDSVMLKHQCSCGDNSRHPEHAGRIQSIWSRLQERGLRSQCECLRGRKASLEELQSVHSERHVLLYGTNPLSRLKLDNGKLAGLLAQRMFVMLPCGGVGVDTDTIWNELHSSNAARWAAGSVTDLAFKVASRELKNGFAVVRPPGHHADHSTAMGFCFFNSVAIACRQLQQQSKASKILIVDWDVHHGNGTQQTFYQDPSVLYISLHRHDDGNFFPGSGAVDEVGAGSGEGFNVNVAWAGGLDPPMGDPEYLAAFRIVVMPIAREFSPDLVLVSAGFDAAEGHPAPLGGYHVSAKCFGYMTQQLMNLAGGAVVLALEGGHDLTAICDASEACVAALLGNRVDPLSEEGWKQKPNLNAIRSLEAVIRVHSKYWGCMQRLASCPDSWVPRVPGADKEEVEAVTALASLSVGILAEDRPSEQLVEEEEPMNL
In words: HDAC7 biochemical assay, class IIa-specific substrate. The following applies: read-out: HDAC Isoform IC50 (nM) 7. The protocol: as §1, §2
Human HDAC7 (GenBank Accession No. AY302468), (a.a. 518-end) with N-terminal GST tag, MW=78 kDa, expressed in baculovirus expression system.
as §3, §6
HDAC7: 0.001 ng/ul HDAC7 and 50 μM Class IIa HDAC substrate are in the reaction buffer with 1% DMSO final. Incubate for 30 minutes at room temperature.
as §4, §5

In a further assay the target is T6, Human HDAC9 (Homo sapiens, UniProt Q9UKV0).
T6 construct: amino acids 604-1066 with C-terminal His tag; His (C); host or cells: baculovirus expression system
T6 sequence (Q9UKV0 604-1066 isoform Q9UKV0-5): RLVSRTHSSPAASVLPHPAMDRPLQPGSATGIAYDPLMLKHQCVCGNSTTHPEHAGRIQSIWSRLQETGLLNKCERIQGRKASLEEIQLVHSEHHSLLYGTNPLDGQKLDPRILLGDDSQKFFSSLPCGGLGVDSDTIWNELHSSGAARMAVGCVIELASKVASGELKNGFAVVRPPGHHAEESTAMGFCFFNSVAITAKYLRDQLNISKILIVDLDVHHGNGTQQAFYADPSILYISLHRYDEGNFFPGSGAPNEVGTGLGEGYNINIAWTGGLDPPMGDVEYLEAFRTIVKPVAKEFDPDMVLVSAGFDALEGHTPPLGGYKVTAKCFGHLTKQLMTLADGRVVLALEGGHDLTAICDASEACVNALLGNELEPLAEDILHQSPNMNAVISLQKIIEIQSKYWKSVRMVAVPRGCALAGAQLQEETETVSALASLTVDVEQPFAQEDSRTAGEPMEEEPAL
In words: HDAC9 biochemical assay, class IIa-specific substrate. As to conditions: read-out: HDAC Isoform IC50 (nM) 9. As to the method:
as §1, §2
Human HDAC9 (GenBank Accession No. NM_178423), amino acids 604-1066 with C-terminal His tag, MW=50.7 kDa, expressed in baculovirus expression system.
as §3, §6
HDAC9: 0.06 ng/ul HDAC9 and 50 μM Class IIa HDAC substrate are in the reaction buffer with 1% DMSO final. Incubate for 30 minutes at room temperature.
as §4, §5

As a reminder, the IC50 is the midpoint of a concentration-inhibition curve.

T1 sequence (Q13547 whole entry): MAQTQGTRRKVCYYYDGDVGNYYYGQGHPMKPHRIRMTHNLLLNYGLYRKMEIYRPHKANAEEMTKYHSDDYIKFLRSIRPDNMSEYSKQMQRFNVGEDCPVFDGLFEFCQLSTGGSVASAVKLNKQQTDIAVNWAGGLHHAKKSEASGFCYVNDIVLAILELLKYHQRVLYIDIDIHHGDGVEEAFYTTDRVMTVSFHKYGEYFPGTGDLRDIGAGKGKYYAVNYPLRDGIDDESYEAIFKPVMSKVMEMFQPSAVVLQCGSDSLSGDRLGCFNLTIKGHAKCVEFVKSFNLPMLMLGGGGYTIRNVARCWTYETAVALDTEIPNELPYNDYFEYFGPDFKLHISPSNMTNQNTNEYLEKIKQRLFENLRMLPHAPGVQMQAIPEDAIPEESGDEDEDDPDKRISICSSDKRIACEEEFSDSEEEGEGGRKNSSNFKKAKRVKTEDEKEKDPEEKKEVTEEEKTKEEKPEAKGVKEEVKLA

Turning to `FC(F)(F)c1nc(-c2ccc(CN(c3ccncc3)c3cnccn3)s2)no1` [Example AR, N-(Pyridin-4-yl)-N-({5-[5-(trifluoromethyl)-1,2,4-oxadiazol-3-yl]thiophen-2-yl}methyl)pyrazin-2-amine], the IC50 is more than 10000 nM at Human HDAC1; not above 500 nM at Human HDAC4; not above 500 nM on Human HDAC5; not above 500 nM at Recombinant human HDAC6; not above 500 nM at Human HDAC7; not above 1000 nM on Human HDAC9.
Take `Cc1ccnc(N(Cc2ccc(-c3noc(C(F)(F)F)n3)s2)c2cnccn2)n1` [Example AT, 4-Methyl-N-(pyrazin-2-yl)-N-({5-[5-(trifluoromethyl)-1,2,4-oxadiazol-3-yl]thiophen-2-yl}methyl)pyrimidin-2-amine]: the IC50 on Human HDAC1 was more than 10000 nM; on Human HDAC4, not above 10000 nM; at Human HDAC5, not above 10000 nM; at Recombinant human HDAC6, not above 10000 nM; on Human HDAC7, not above 10000 nM; at Human HDAC9, not above 10000 nM.
Take `COc1ccnc(N(Cc2ccc(-c3noc(C(F)(F)F)n3)s2)c2cnccn2)n1` [Example AU, 4-Methoxy-N-(pyrazin-2-yl)-N-({5-[5-(trifluoromethyl)-1,2,4-oxadiazol-3-yl]thiophen-2-yl}methyl)pyrimidin-2-amine]: the half-maximal inhibitory concentration (IC50) on Human HDAC1 is more than 10000 nM; on Human HDAC4, not above 10000 nM; on Human HDAC5 it was not above 10000 nM; at Recombinant human HDAC6, not above 10000 nM; at Human HDAC7 it was not above 10000 nM; at Human HDAC9, not above 10000 nM.
`FC(F)(F)c1nc(-c2ccc(CN(c3cnccn3)c3nccc(N4CCCC4)n3)s2)no1` [Example AV, N-(Pyrazin-2-yl)-4-(pyrrolidin-1-yl)-N-({5-[5-(trifluoromethyl)-1,2,4-oxadiazol-3-yl]thiophen-2-yl}methyl)pyrimidin-2-amine]: the 50% inhibitory concentration (IC50) was more than 10000 nM on Human HDAC1; not above 10000 nM at Human HDAC4; not above 10000 nM at Human HDAC5; not above 10000 nM at Recombinant human HDAC6; not above 10000 nM on Human HDAC7; not above 10000 nM on Human HDAC9.
For `Cc1cnc(N(Cc2ccc(-c3noc(C(F)(F)F)n3)s2)c2cnccn2)nc1` [Example AW, 5-Methyl-N-(pyrazin-2-yl)-N-({5-[5-(trifluoromethyl)-1,2,4-oxadiazol-3-yl]thiophen-2-yl}methyl)pyrimidin-2-amine], the 50% inhibitory concentration (IC50) on Human HDAC1 is more than 10000 nM; on Human HDAC4, not above 10000 nM; at Human HDAC5 it was not above 10000 nM; on Recombinant human HDAC6, not above 10000 nM; on Human HDAC7, not above 10000 nM; at Human HDAC9, not above 10000 nM.
In the case of `Fc1cnc(N(Cc2ccc(-c3noc(C(F)(F)F)n3)s2)c2cnccn2)nc1` [Example AX, 5-Fluoro-N-(pyrazin-2-yl)-N-({5-[5-(trifluoromethyl)-1,2,4-oxadiazol-3-yl]thiophen-2-yl}methyl)pyrimidin-2-amine], the 50% inhibitory concentration (IC50) on Human HDAC1 is more than 10000 nM; at Human HDAC4, not above 10000 nM; at Human HDAC5, not above 10000 nM; on Recombinant human HDAC6 it was not above 10000 nM; on Human HDAC7, not above 10000 nM; on Human HDAC9, not above 10000 nM.
`COc1cnc(N(Cc2ccc(-c3noc(C(F)(F)F)n3)s2)c2cnccn2)nc1` [Example AY, 5-Methoxy-N-(pyrazin-2-yl)-N-({5-[5-(trifluoromethyl)-1,2,4-oxadiazol-3-yl]thiophen-2-yl}methyl)pyrimidin-2-amine]: the concentration for half-maximal inhibition (IC50) at Human HDAC1 is not above 10000 nM; on Human HDAC4, not above 10000 nM; on Human HDAC5, not above 10000 nM; at Recombinant human HDAC6, not above 1000 nM; on Human HDAC7, not above 10000 nM; on Human HDAC9, not above 10000 nM.
For the compound `Cc1cc(C)nc(N(Cc2ccc(-c3noc(C(F)(F)F)n3)s2)c2cnccn2)n1` [Example AZ, 4,6-Dimethyl-N-(pyrazin-2-yl)-N-({5-[5-(trifluoromethyl)-1,2,4-oxadiazol-3-yl]thiophen-2-yl}methyl)pyrimidin-2-amine], the IC50 is more than 10000 nM on Human HDAC1; more than 10000 nM at Human HDAC4; not above 10000 nM at Human HDAC5; not above 10000 nM on Recombinant human HDAC6; more than 10000 nM on Human HDAC7; more than 10000 nM on Human HDAC9.
